From patent US20140206681A1, “BTK INHIBITORS” (priority 2013, published 2014)

Target: T1, BTK enzyme (recombinant full-length BTK, hBTK) (Homo sapiens, UniProt Q06187)
T1 construct: recombinant protein from baculovirus-transfected Sf9 cells: full-length BTK, 6HIS-tag cleaved; 6HIS (cleaved yes); made in house; host or cells: baculovirus-transfected Sf9 cells
Assay: BTK enzyme activity assay, LANCE TR-FRET
Format: biochemical
Conditions: 50 pM hBTK, 2 μM biotin-A5-peptide, 25 μM ATP; 60 min compound & enzyme incubation; read-out: IC50 BTK activity value

T1 sequence (Q06187 whole entry): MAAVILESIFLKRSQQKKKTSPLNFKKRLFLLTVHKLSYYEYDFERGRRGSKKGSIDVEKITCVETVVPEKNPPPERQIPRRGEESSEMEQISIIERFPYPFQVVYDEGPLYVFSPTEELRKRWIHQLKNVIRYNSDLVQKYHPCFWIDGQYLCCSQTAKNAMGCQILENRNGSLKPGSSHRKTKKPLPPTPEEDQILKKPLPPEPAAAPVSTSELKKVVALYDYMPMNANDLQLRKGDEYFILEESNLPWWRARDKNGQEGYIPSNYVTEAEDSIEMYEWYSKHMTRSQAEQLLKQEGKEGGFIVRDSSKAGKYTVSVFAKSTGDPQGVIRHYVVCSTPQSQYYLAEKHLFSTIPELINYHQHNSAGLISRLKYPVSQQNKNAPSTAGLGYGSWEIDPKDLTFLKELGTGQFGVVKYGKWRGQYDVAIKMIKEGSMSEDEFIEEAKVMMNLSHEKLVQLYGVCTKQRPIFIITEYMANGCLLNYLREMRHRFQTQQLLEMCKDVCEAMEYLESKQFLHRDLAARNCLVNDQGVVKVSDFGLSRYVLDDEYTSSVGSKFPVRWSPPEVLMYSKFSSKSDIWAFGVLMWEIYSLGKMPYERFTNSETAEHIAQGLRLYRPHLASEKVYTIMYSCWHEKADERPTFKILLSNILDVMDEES

Row | Structure (SMILES) | IC50 [nM]
1 | Nc1nccn2c([C@H]3CC[C@@H]4COC(=O)N4C3)nc(-c3ccc(C(=O)Nc4cc(C(F)(F)F)ccn4)cc3F)c12 (stereo in doubt) [Example 13, 4-(8-amino-3-((6S,8aR)-3-oxohexahydro-1H-oxazolo[3,4-a]pyridin-6-yl)imidazo[1,5-a]pyrazin-1-yl)-3-fluoro-N-(4-(trifluoromethyl)pyridin-2-yl)benzamide] | 1.3
2 | Nc1nccn2c([C@@H]3CC[C@H]4CCC(=O)N4C3)nc(-c3ccc(C(=O)Nc4cc(OC5CC5)ccn4)cc3)c12 [Example 5, 4-(8-amino-3-((6R,8aS)-3-oxooctahydroindolizin-6-yl)imidazo[1,5-a]pyrazin-1-yl)-N-(4-cyclopropoxypyridin-2-yl)benzamide] | 0.24
3 | Nc1nccn2c([C@@H]3CC[C@H]4CCC(=O)N4C3)nc(-c3ccc(C(=O)Nc4cc(C5CCC5)ccn4)cc3)c12 [Example 7, 4-(8-amino-3-((6R,8aS)-3-oxooctahydroindolizin-6-yl)imidazo[1,5-a]pyrazin-1-yl)-N-(4-cyclobutylpyridin-2-yl)benzamide] | 60.6
4 | Nc1nccn2c([C@@H]3CC[C@H]4COC(=O)N4C3)nc(-c3ccc(C(=O)Nc4cc(C(F)(F)F)ccn4)cc3F)c12 [Example 12, 4-(8-amino-3-((6R,8aS)-3-oxohexahydro-1H-oxazolo[3,4-a]pyridin-6-yl)imidazo[1,5-a]pyrazin-1-yl)-3-fluoro-N-(4-(trifluoromethyl)pyridin-2-yl)benzamide] | 0.083
5 | Nc1nccn2c([C@@H]3CC[C@H]4CCC(=O)N4C3)nc(-c3ccc(C(=O)Nc4cc(C(F)F)ccn4)cc3F)c12 [Example 14, 4-{8-amino-3-[(6R,8aS)-3-oxooctahydroindolizin-6-yl]imidazo[1,5-a]pyrazin-1-yl}-N-[4-(difluoromethyl)pyridin-2-yl]-3-fluorobenzamide] | 0.12
6 | Nc1nccn2c([C@@H]3CC[C@H]4CCC(=O)N4C3)nc(-c3ccc(C(=O)Nc4cc(C(F)F)ccn4)cc3)c12 [Example 17] | 0.31
7 | Cc1cc(-c2nc([C@@H]3CC[C@H]4CCC(=O)N4C3)n3ccnc(N)c23)ccc1C(=O)Nc1cc(C(F)(F)F)ccn1 [Example 22, 4-{8-amino-3-[(6R,8aS)-3-oxooctahydroindolizin-6-yl]imidazo[1,5-a]pyrazin-1-yl}-2-methyl-N-[4-(trifluoromethyl)pyridin-2-yl]benzamide] | 0.41
8 | CC(F)(F)c1ccnc(NC(=O)c2ccc(-c3nc([C@@H]4CC[C@H]5CCC(=O)N5C4)n4ccnc(N)c34)cc2F)c1 [Example 25, 4-{8-amino-3-[(6R,8aS)-3-oxooctahydroindolizin-6-yl]imidazo[1,5-a]pyrazin-1-yl}-N-[4-(1,1-difluoroethyl)pyridin-2-yl]-2-fluorobenzamide] | 0.54
9 | Nc1nccn2c([C@@H]3CC[C@H]4CCC(=O)N4C3)nc(-c3ccc(C(=O)Nc4cc(C(F)F)ccn4)c(F)c3)c12 [Example 26, 4-{8-amino-3-[(6R,8aS)-3-oxooctahydroindolizin-6-yl]imidazo[1,5-a]pyrazin-1-yl}-N-[4-(difluoromethyl)pyridin-2-yl]-2-fluorobenzamide] | 1.5

Same assay, conditions: IC50 BTK activity value, 50 pM hBTK, 2 μM biotin-A5-peptide, 25 μM ATP; 60 min compound & enzyme incubation

Row | Structure (SMILES) | IC50 [nM]
10 | Nc1nccn2c([C@H]3CC[C@H]4COC(=O)N4C3)nc(-c3ccc(C(=O)Nc4cc(C(F)(F)F)ccn4)cc3)c12 [Example 1, 4-(8-amino-3-((6S,8aS)-3-oxohexahydro-1H-oxazolo[3,4-a]pyridin-6-yl)imidazo[1,5-a]pyrazin-1-yl)-N-(4-(trifluoromethyl)pyridin-2-yl)benzamide] | 5.5
11 | Nc1nccn2c([C@@H]3CC[C@@H]4COC(=O)N4C3)nc(-c3ccc(C(=O)Nc4cc(C(F)(F)F)ccn4)cc3)c12 [Example 2, 4-(8-amino-3-((6R,8aR)-3-oxohexahydro-1H-oxazolo[3,4-a]pyridin-6-yl)imidazo[1,5-a]pyrazin-1-yl)-N-(4-(trifluoromethyl)pyridin-2-yl)benzamide] | 15.6
